Results as given in BigSolDB 2.1.

Nc1nnn[nH]1
solubility (mole fraction)
Settings | 283.15 K | 288.15 K | 293.15 K | 298.15 K | 303.15 K | 308.15 K | 313.15 K | 318.15 K | 323.15 K
in 1,4-dioxane | – | 0.0178 | 0.0217 | 0.0267 | 0.0328 | 0.0393 | 0.0463 | 0.0551 | 0.0652
in DMF | 0.0284 | 0.0326 | 0.038 | 0.0437 | 0.0493 | 0.0559 | 0.0628 | 0.0707 | 0.0795
in NMP | 0.0223 | 0.0265 | 0.0312 | 0.0366 | 0.0432 | 0.0502 | 0.0577 | 0.0657 | 0.0741
in acetone | 0.000749 | 0.000832 | 0.000916 | 0.00102 | 0.00112 | 0.00123 | 0.00135 | 0.00149 | 0.00162
in acetonitrile | 0.000193 | 0.000213 | 0.000235 | 0.000256 | 0.00028 | 0.000304 | 0.000329 | 0.000357 | 0.000385
in ethanol | 0.0008 | 0.000896 | 0.00099 | 0.00109 | 0.00121 | 0.00133 | 0.00145 | 0.0016 | 0.00175
in ethyl acetate | 0.000499 | 0.000572 | 0.000649 | 0.000734 | 0.000834 | 0.000943 | 0.00107 | 0.00122 | 0.00139
in isopropanol | 0.000762 | 0.000853 | 0.000946 | 0.00105 | 0.00116 | 0.00128 | 0.00141 | 0.00154 | 0.00169
in methanol | 0.000615 | 0.000681 | 0.000764 | 0.000858 | 0.000954 | 0.00106 | 0.00118 | 0.00131 | 0.00147
in n-butanol | 0.000455 | 0.00051 | 0.000577 | 0.00066 | 0.000755 | 0.000869 | 0.001 | 0.00115 | 0.00131
in n-propanol | 0.000694 | 0.000773 | 0.000868 | 0.000962 | 0.00106 | 0.00117 | 0.00129 | 0.00142 | 0.00157
in toluene | 0.00135 | 0.00156 | 0.00177 | 0.00201 | 0.00229 | 0.0026 | 0.00295 | 0.00335 | 0.00381
